Paper PMC4016869, “In Search of the Active Metabolites of an Anticancer Piperazinedione, TW01003, in Rats” (BioMed Research International, 2014)
Structures can show the parent of a compound that is named as a salt.

Experiments:
[1] = Pharmacokinetics of TW01003 and TW01003 sulfate after i.v. administration of TW01003 in Wistar rats; assay type: in vivo, rat; settings: for Cmax / MRT inf / Vd / clearance / half-life: male, rat, iv; for Cmax / MRT inf / Vd / clearance / half-life / AUMCINF / AUCINF / AUCall: plasma, i.v. TW01003 2.0 mg/kg; for Cmax / MRT inf / Vd / clearance / half-life / AUMCINF: n = 6, mean ± SD; for AUCINF: n = 6, time 0 to infinite; for AUCINF / AUCall: mean ± SD; for AUCall: n = 6, time 0 to last sampling time
Procedure: Single-dose TW01003 in a solution (1 mL) containing a 9 : 1 (v/v) ratio of vehicle V : 10% Na2CO3(aq) was used for animal studies in pig or in male Wistar rats. For metabolic studies, the TW01003 test solution was administered intravenously (7 mg/kg, n = 1) to the tail vein or orally (36 mg/kg, n = 1) by a feeding tube. For pharmacokinetic studies, the test solution was administered intravenously to the tail vein of Wistar rats (2.0 mg/kg, 1 mL, n = 6). The rats were put under a heating lamp to maintain body temperatures at 37°C throughout the experiment. All procedures involving the use of animals were approved by the Institutional Animal Care and Use Committee of Taipei Medical University.
Blood samples (0.5 mL) were withdrawn from the carotid artery of rats at time intervals of 5, 15, 30, 45, 60, 90, 120, 180, and 240 min. Heparin sodium (25 IU/mL in 0.3 mL of saline) was added, and the blood samples were centrifuged (5,585 g) at 4°C for 8 min. The plasma was frozen immediately and kept at −78°C until analysis. The plasma sample (150 μL) was mixed with a sulfatase solution (200 IU/mL, 50 μL) at 37°C for 2 h. The plasma sample (150 μL) mixed with 50 μL of a buffer solution (pH 5.0) was used for the control group. The internal standard solution was then added, and the solution was centrifuged (5,585 g) for 10 min. The supernatant was concentrated to dryness with nitrogen gas. The D5W vehicle (200 μL) was then added to the residue, and the solution was subjected to HPLC analysis.
We established the plasma concentration-time profile. The area under the plasma concentration-time profile (AUC) and other pharmacokinetic parameters (peak concentration: C max; time to reach C max: T max; area under the moment curve: AUMC; volume of distribution: V D) were calculated using the log-linear trapezoidal rule. […] Terminal half-life (t 1/2) was compartment model-independently estimated. Data analysis was performed using Microsoft Excel, and data were represented as mean ± standard deviation (SD) for n experiments. Treatment differences were evaluated by the paired t-test.

[2] = Identification of TW01003 metabolites in pig urine after i.v. administration (HPLC, sulfatase treatment); assay type: in vivo; settings: i.v. TW01003 200 mg, urine 60 min after dosing
Description: Crossbred 3-4-month-old pigs weighing 40–50 kg, obtained from the Animal Technology Institute, Taiwan (Miaoli, Taiwan), were used in a preliminary metabolic study for establishing the HPLC analytical method for the identification of TW01003 and its metabolites. The phase II conjugate TW01003 sulfate was first isolated from pig urine as an authentic sample for analysis. Male Wistar rats (200–250 g) for pharmacokinetic studies were purchased from the Laboratory Animal Center of National Taiwan University (Taipei, Taiwan). The animals were pathogen free and allowed to acclimate to the environmentally controlled quarters (24 ± 1°C and 12 : 12 h light-dark cycle) for at least 5 days before the experiments. Animal studies were conducted in accordance with the Guide for the Care and Use of Laboratory Animals.
In order to establish a feasible analytical method for the identification of TW01003 metabolites in a biological system, a test solution containing 200 mg of TW01003 was first injected into a 40–50 kg pig. Fresh urine (1 mL) was collected 60 min after dosing, filtered through a 0.22 μm Millipore filter, and subjected to HPLC analysis. Typical HPLC chromatograms of urine sample of untreated pig (Figure 2(a)), urine samples upon i.v. dosing of TW01003 (Figure 2(b)), and urine samples after sulfatase treatment (Figure 2(c)) are depicted.

[3] = Metabolic study of TW01003 in a rat after i.v. administration (plasma, enzymatic treatment, HPLC); assay type: in vivo
Procedure: Single-dose TW01003 in a solution (1 mL) containing a 9 : 1 (v/v) ratio of vehicle V : 10% Na2CO3(aq) was used for animal studies in pig or in male Wistar rats. For metabolic studies, the TW01003 test solution was administered intravenously (7 mg/kg, n = 1) to the tail vein or orally (36 mg/kg, n = 1) by a feeding tube. For pharmacokinetic studies, the test solution was administered intravenously to the tail vein of Wistar rats (2.0 mg/kg, 1 mL, n = 6). The rats were put under a heating lamp to maintain body temperatures at 37°C throughout the experiment. All procedures involving the use of animals were approved by the Institutional Animal Care and Use Committee of Taipei Medical University. Blood samples (0.5 mL) were withdrawn from the carotid artery of rats at time intervals of 5, 15, 30, 45, 60, 90, 120, 180, and 240 min. Heparin sodium (25 IU/mL in 0.3 mL of saline) was added, and the blood samples were centrifuged (5,585 g) at 4°C for 8 min. The plasma was frozen immediately and kept at −78°C until analysis. The plasma sample (150 μL) was mixed with a sulfatase solution (200 IU/mL, 50 μL) at 37°C for 2 h. The plasma sample (150 μL) mixed with 50 μL of a buffer solution (pH 5.0) was used for the control group. The internal standard solution was then added, and the solution was centrifuged (5,585 g) for 10 min. The supernatant was concentrated to dryness with nitrogen gas. […]

[4] = test system: 60 human disease-oriented cancer cell panel; parameters: method as in PMID 23567646; settings: cited from earlier work
[5] = Preliminary pharmacokinetic study, oral administration to rats; assay type: in vivo; settings: unpublished data
[6] = test system: vascular endothelial growth factor- (VEGF-) induced angiogenesis; assay: Matrigel with VEGF-induced angiogenesis after oral treatment in mice; assay type: in vivo; settings: oral TW01003 3 mg/kg, unpublished data

SMILES: O=c1[nH]/c(=C\c2ccc(OS(=O)(=O)O)cn2)c(=O)[nH]/c1=C\c1ccccc1 [TW01003 sulfate]
- clearance rate relative to TW01003 ([1]; i.v. TW01003, n = 6): 2.3 times lower
- residence time (MRTINF) relative to TW01003 ([1]; i.v. TW01003, n = 6): seven times longer
- systemic exposure (AUCINF) relative to TW01003 ([1]; i.v. TW01003, n = 6): 2.5 times higher
- volume of distribution relative to TW01003 ([1]; i.v. TW01003, n = 6): three times higher
- Cmax [1]: 1310 ± 640 ng/mL
- MRT inf [1]: 1.44 ± 0.33 h
- Vd [1]: 4.43 ± 1.52 L/kg
- clearance [1]: 51.3 mL/min/kg
- half-life [1]: 1.31 ± 0.22 h
- AUMCINF [1]: 1.01 ± 0.36 h∗h∗μg/mL
- AUCINF [1]: 0.71 ± 0.25 h∗μg/mL
- AUCall [1]: 0.52 ± 0.20 h∗μg/mL
- metabolite found in pig urine [2]: major metabolite
- metabolite in rat plasma after i.v. administration ([3]; Wistar rat, i.v. TW01003 6.7 mg/kg, n = 1): major metabolite

SMILES: O=c1[nH]/c(=C/c2ccc(O)cn2)c(=O)[nH]/c1=C/c1ccccc1 [TW01003, (3E,6E)-3-Benzylidene-6-[(5-hydroxypyridin-2-yl)methylene]piperazine-2,5-dione]
- Cmax [1]: 2200 ± 250 ng/mL
- MRT inf [1]: 0.2 ± 0.06 h
- Vd [1]: 1.41 ± 0.41 L/kg
- clearance [1]: 118 mL/min/kg
- half-life [1]: 0.76 ± 0.14 h
- AUMCINF [1]: 0.06 ± 0.02 h∗h∗μg/mL
- AUCINF [1]: 0.29 ± 0.04 h∗μg/mL
- AUCall [1]: 0.28 ± 0.04 h∗μg/mL
- antitumor activity in words [4]: broad spectrum of antitumor activities
- oral fraction absorbed [5]: 1.72%
- hemoglobin count of the matrigel reduced to [6]: < 1%
- clearance in words ([3]; rat, i.v. 6.7 mg/kg or oral 36.0 mg/kg, regardless of administration method): cleared fairly rapidly
